What was measured:
Assay in all cases: Kinase selectivity profile, 33P-ATP filter-binding assay
Type in all cases: biochemical
[1] = target: RIPK2 (Homo sapiens, UniProt O43353)
Method: (§1) Figure 5 Kinase selectivity profile of 1b. Compound 1b was profiled against a selected panel of 95 different kinases at a concentration of 10 µM employing a radioactive (^33P-ATP) filter-binding assay (National Centre for Protein Kinase Profiling, Dundee). The numbers represent the remaining kinase activity in %. […] TEXT PRINTED IN THE PICTURE: no label printed: Aurora B: 53; MNK2: 67; MINK1: 69; HER4: 71; MKK1: 75; PKBβ: 75; PHK: 76; PIM2: 76; PIM3: 77; CHK2: 78; PKD1: 79; TBK1: 79; PAK4: 80; Lck: 80; GSK3β: 80; IGF-1R: 81; p38δ MAPK: 81; PIM1: 82; SRPK1: 83; SmMLCK: 83; MAPKAP-K3: 84; EPH A2: 85; MELK: 85; CK2: 85; CK1: 86; CAMK1: 86; PLK1: 87; MST2: 87; IR-HIS: 87; BTK: 87; HIPK1: 87; p38α MAPK: 88; DYRK2: 88; JNK3: 88; PAK5: 88; IKKε: 89; p38β MAPK: 89; NUAK1: 90; PAK2: 90; MNK1: 91; ERK8: 91; GCK: 91; PRAK: 91; MLK1: 92; SGK1: 92; PAK6: 92; TTK: 92; BRSK2: 92; MARK4: 93; CHK1: 93; RIPK2: 94; CDK2-Cyclin A: 94; JNK1: 94; AMPK: 94; VEG-FR: 95; DYRK1A: 95; CAMKKβ: 95; PKCα: 96; S6K1: 96; MSK1: 96; PKCz: 96; YES1: 96; RSK1: 97; IRAK4: 97; DYRK3: 97; IKKβ: 97; ERK2: 98; MLK3: 98; RSK2: 98; LKB1: 98; MAPKAP-K2: 98; ERK1: 99; FGF-R1: 99; SYK: 99; MST4: 99; MARK3: 99; MARK2: 100; PDK1: 100; JNK2: 101; HIPK2: 101; BRSK1: 102; EF2K: 102; PRK2: 103; Aurora A: 104; IRR: 104; CSK: 104; PKA: 104; NEK6: 105; p38γ MAPK: 105; Src: 107; PKBα: 109; ROCK 2: 109; EPH-B3: 112; HIPK3: 115; NEK2α: 119 DOUBTS OF THE COPYIST ABOUT THIS PICTURE: The picture prints no compound label and no measure or unit for the numbers; only the colour scale 'Inhibition weak/strong' is printed. / PKCz: the last letter may be z or ζ / NEK2α: the last letter may be a or α / IKKε: the last letter may be ε or e

[2] = target: MST2 (Homo sapiens, UniProt Q13188)
Method: as §1

[3] = target: BRSK2 (Homo sapiens, UniProt Q8IWQ3)
Method: as §1

[4] = target: IKKβ (Homo sapiens, UniProt O14920)
Method: as §1

[5] = target: CAMKKβ (Homo sapiens, UniProt Q96RR4)
Method: as §1

[6] = target: CHK2 (Homo sapiens, UniProt O96017)
Method: as §1

[7] = target: SGK1 (Homo sapiens, UniProt O00141)
Method: as §1

[8] = target: PRAK (Homo sapiens, UniProt Q8IW41)
Method: as §1

[9] = target: EF2K (Homo sapiens, UniProt O00418)
Method: as §1

[10] = target: S6K1 (Homo sapiens, UniProt P23443)
Method: as §1

[11] = target: PKBα (Homo sapiens, UniProt P31749)
Method: as §1

[12] = target: MLK1 (Homo sapiens, UniProt P80192)
Method: as §1

[13] = target: BRSK1 (Homo sapiens, UniProt Q8TDC3)
Method: as §1

[14] = target: Src (Homo sapiens, UniProt P12931)
Method: as §1

[15] = target: DYRK1A (Homo sapiens, UniProt Q13627)
Method: as §1

[16] = target: JNK3 (Homo sapiens, UniProt P53779)
Method: as §1

[17] = target: JNK1 (Homo sapiens, UniProt P45983)
Method: as §1

[18] = target: MARK4 (Homo sapiens, UniProt Q96L34)
Method: as §1

[19] = target: PKD1 (Homo sapiens, UniProt Q15139)
Method: as §1

[20] = target: Aurora A (Homo sapiens, UniProt O14965)
Method: as §1

[21] = target: PKCα (Homo sapiens, UniProt P17252)
Method: as §1

[22] = target: SYK (Homo sapiens, UniProt P43405)
Method: as §1

[23] = target: PIM2 (Homo sapiens, UniProt Q9P1W9)
Method: as §1

[24] = target: CAMK1 (Homo sapiens, UniProt Q14012)
Method: as §1

[25] = target: MARK3 (Homo sapiens, UniProt P27448)
Method: as §1

[26] = target: MAPKAP-K3 (Homo sapiens, UniProt Q16644)
Method: as §1

[27] = target: DYRK2 (Homo sapiens, UniProt Q92630)
Method: as §1

SGK1, sequence (O00141 whole entry): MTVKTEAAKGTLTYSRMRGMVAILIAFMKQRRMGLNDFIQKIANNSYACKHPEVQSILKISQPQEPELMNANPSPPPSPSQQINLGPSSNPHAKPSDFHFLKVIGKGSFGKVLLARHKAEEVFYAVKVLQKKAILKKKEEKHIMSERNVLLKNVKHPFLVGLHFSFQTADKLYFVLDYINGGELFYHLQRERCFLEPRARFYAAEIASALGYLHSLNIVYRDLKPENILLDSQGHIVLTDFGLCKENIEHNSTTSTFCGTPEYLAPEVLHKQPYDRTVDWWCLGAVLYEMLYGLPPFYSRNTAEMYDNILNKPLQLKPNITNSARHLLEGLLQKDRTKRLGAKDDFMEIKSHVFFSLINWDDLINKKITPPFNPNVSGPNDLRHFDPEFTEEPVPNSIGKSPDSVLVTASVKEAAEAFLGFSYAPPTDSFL
MAPKAP-K3, sequence (Q16644 whole entry): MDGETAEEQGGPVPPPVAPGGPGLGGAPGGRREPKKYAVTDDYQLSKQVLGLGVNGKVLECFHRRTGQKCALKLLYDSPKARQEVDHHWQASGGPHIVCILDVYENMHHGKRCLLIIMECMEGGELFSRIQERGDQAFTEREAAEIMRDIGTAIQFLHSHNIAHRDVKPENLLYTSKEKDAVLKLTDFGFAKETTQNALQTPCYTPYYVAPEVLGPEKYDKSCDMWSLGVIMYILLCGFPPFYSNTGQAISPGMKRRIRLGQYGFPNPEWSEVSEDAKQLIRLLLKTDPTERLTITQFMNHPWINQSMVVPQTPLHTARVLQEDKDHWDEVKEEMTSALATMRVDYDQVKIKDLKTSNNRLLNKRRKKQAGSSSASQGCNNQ
RIPK2, sequence (O43353 whole entry): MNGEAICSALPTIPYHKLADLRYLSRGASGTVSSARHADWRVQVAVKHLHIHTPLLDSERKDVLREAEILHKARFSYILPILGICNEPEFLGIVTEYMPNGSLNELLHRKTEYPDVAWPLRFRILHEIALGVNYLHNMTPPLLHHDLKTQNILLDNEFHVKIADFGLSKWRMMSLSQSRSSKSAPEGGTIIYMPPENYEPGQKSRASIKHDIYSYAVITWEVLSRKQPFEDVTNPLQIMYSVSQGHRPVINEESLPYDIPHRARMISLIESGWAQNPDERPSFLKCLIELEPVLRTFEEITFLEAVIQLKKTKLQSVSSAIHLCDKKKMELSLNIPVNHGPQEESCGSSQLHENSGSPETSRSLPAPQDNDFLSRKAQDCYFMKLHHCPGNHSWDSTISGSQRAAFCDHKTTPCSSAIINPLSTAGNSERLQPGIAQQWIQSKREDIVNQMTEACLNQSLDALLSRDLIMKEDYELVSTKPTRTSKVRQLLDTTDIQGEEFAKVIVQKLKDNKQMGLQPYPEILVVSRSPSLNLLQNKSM
Src, sequence (P12931 whole entry): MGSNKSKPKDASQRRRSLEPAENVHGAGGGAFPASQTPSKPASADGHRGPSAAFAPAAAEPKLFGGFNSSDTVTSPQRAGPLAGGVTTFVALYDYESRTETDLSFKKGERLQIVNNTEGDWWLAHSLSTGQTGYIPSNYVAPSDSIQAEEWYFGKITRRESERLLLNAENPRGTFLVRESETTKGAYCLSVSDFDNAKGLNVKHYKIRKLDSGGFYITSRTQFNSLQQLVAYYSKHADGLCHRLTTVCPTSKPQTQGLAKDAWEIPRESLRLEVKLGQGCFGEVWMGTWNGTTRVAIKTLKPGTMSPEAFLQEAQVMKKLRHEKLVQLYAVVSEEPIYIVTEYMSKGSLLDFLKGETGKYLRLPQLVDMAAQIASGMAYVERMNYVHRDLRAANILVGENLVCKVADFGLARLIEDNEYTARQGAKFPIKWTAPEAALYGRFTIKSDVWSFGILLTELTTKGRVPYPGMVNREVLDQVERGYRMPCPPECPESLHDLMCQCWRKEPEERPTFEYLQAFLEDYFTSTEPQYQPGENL
BRSK1, sequence (Q8TDC3 whole entry): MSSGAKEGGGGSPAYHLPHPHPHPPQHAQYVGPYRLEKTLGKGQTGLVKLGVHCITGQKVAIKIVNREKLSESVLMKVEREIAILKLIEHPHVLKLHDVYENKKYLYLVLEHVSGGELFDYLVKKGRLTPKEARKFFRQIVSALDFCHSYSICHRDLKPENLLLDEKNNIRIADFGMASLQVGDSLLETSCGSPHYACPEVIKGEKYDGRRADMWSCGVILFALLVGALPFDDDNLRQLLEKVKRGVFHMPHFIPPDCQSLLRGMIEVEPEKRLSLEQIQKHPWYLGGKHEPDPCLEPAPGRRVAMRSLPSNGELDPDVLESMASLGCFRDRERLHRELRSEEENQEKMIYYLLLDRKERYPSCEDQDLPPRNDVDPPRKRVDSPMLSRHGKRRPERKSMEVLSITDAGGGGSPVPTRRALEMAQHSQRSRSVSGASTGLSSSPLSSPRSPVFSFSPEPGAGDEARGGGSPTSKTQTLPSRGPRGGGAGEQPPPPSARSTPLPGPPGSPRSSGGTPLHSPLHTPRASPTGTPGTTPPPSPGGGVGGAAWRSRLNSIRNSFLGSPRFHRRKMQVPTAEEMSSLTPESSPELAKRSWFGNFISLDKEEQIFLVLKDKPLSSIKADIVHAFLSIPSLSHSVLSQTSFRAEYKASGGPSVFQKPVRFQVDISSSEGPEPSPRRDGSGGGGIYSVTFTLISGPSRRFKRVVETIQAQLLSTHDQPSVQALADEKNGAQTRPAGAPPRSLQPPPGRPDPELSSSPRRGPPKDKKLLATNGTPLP
MST2, sequence (Q13188 whole entry): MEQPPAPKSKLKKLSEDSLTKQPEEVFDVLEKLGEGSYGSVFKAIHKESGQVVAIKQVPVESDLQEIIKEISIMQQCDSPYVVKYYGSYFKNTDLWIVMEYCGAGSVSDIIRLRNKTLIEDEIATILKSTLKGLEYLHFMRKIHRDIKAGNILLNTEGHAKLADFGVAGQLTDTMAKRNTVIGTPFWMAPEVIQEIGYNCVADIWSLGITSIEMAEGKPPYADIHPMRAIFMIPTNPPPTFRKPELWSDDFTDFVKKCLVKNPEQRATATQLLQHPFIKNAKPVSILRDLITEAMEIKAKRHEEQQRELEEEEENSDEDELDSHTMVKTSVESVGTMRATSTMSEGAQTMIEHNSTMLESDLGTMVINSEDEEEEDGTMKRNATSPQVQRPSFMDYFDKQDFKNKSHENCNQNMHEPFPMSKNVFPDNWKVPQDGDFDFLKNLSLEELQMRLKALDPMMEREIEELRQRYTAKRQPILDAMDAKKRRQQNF
MARK4, sequence (Q96L34 whole entry): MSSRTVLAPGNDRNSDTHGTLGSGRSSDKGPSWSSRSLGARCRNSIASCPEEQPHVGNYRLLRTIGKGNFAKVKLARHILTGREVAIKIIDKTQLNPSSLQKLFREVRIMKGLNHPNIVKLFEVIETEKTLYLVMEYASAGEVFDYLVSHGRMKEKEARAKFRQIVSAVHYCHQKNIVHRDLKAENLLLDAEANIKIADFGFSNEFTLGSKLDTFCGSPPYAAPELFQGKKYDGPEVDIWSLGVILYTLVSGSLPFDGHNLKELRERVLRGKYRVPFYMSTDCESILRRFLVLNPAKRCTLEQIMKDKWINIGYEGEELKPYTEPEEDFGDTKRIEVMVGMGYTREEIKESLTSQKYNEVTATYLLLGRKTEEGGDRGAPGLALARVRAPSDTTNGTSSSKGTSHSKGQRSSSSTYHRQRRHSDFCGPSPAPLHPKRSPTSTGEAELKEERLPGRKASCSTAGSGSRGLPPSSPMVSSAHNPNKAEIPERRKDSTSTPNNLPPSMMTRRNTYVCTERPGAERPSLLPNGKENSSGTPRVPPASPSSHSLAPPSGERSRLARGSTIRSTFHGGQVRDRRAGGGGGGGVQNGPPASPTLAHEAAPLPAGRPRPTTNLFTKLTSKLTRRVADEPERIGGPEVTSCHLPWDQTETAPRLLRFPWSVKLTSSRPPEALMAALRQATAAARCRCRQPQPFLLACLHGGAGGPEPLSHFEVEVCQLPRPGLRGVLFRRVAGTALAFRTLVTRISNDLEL
PIM2, sequence (Q9P1W9 whole entry): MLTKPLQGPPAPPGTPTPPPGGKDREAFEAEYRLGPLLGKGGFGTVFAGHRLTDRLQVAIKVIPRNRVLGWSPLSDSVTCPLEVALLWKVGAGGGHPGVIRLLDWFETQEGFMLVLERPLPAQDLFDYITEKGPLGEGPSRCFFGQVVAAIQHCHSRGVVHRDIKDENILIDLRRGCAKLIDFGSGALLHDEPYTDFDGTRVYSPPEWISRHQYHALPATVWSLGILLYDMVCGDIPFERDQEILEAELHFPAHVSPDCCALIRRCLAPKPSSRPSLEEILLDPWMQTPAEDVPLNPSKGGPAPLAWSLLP

`Nc1ccc2c(NC3CC3)nc(-c3ccccc3)nc2c1` [1b, N^4-Cyclopropyl-2-phenyl-4,7-quinazolinediamine] gave a remaining activity at 10 µM [1] of 94%, a remaining activity at 10 µM [2] of 87% and a remaining activity at 10 µM [3] of 92%. It also gave a remaining activity at 10 µM [4] of 97%, a remaining activity at 10 µM [5] of 95% and a remaining activity at 10 µM [6] of 78%. The remaining activity at 10 µM [7] was 92%, the remaining activity at 10 µM [8] was 91% and the remaining activity at 10 µM [9] was 102%. It also gave a remaining activity at 10 µM [10] of 96%, a remaining activity at 10 µM [11] of 109% and a remaining activity at 10 µM [12] of 92%. For the same compound, the remaining activity at 10 µM [13] was 102%, the remaining activity at 10 µM [14] was 107% and the remaining activity at 10 µM [15] was 95%. For the same compound, the remaining activity at 10 µM [16] was 88%, the remaining activity at 10 µM [17] was 94% and the remaining activity at 10 µM [18] was 93%. The remaining activity at 10 µM [19] was 79%, the remaining activity at 10 µM [20] was 104% and the remaining activity at 10 µM [21] was 96%. For the same compound, the remaining activity at 10 µM [22] was 99%, the remaining activity at 10 µM [23] was 76% and the remaining activity at 10 µM [24] was 86%. The remaining activity at 10 µM [25] was 99%, the remaining activity at 10 µM [26] was 84% and the remaining activity at 10 µM [27] was 88%.

Reference: PMC3388095, “Fluorophore Labeled Kinase Detects Ligands That Bind within the MAPK Insert of p38α Kinase” (PLoS ONE, 2012)
